Like-named read-outs stand apart in the source and are kept apart here.
Experiments:
[1] = system: patients with class IV LN; conditions: cited from earlier work; for renal remission achieved: then AZA maintenance
[2] = system: patients with class IV LN; conditions: cited from earlier work
[3] = system: patients with proliferative LN; conditions: 59 patients, cited from earlier work; for patients who died during maintenance therapy: followed for as long as 30 months
patients with severe LN = conditions: cited from earlier work; for combined end point, complete plus partial remission (number of patients): P=0.009; for complete remission (number of patients) / complete remission (percent of patients) / partial remission (number of patients): induction therapy of LN; for complete remission (number of patients) / complete remission (percent of patients): 140 patients randomized
[4] = system: rheumatoid arthritis patients; conditions: five trials, 300 patients, cited from earlier work
[5] = system: rheumatoid arthritis patients; conditions: cited from earlier work
[6] = cited from earlier work
[7] = target: T1, dihydropyrimidine dehydrogenase (DPD) (Homo sapiens, UniProt Q12882); conditions: cited from earlier work
T1 construct: host or cells: endogenous enzyme of the body (in vivo drug catabolism)
T1 sequence (Q12882 4-1025): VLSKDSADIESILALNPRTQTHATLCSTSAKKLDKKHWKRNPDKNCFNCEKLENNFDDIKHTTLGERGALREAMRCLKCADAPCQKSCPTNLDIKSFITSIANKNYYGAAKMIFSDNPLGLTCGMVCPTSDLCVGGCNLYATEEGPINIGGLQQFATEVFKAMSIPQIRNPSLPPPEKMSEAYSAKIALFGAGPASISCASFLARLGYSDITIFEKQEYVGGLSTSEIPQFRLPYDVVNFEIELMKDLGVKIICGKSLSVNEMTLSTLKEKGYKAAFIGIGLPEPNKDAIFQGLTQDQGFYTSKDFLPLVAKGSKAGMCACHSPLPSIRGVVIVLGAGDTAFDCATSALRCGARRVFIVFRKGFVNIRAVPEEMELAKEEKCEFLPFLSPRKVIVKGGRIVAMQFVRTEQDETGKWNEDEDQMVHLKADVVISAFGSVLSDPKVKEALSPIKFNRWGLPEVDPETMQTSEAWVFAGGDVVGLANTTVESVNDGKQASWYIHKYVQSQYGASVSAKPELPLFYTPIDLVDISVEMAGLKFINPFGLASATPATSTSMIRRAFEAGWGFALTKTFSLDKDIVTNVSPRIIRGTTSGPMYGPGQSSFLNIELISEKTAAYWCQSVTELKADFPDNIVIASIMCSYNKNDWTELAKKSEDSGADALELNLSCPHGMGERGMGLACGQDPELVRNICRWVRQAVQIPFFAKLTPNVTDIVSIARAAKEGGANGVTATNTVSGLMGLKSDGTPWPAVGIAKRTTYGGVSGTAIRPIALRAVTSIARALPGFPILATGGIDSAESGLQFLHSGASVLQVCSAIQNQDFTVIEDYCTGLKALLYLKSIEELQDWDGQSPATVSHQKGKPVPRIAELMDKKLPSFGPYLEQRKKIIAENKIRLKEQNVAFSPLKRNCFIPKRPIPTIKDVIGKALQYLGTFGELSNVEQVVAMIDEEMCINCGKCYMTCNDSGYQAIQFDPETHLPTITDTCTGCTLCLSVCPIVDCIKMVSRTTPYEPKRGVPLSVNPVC

[8] = system: advanced colorectal cancers; conditions: 5-FU alone; cited from earlier work
[9] = human, in vivo

Compound: O=P1(N(CCCl)CCCl)NCCCO1 (stereo not shown) [CYC, Cyclophosphamide]
- renal remission achieved ([1]; high-dose group (six monthly pulses followed by two quarterly pulses IV)): 54%
- subsequent renal flares ([1]; high-dose group): 29%
- renal remission achieved ([1]; low-dose group (500 mg biweekly x six pulses IV)): 71%
- subsequent renal flares ([1]; low-dose group): 27%
- renal survival ([2]; black patients, at year 5): 71%
- renal survival rate ([2]; nonblack patients, through 5 years of follow-up): 95%
- patients who died during maintenance therapy [3]: four
- patients who developed chronic renal failure during maintenance therapy [3]: three
- combined end point, complete plus partial remission (number of patients) (patients with severe LN): 21 patients
- deaths (patients with severe LN; all in patients randomized to IV CYC): Three
- complete remission (number of patients) (patients with severe LN): four
- complete remission (percent of patients) (patients with severe LN): 6%
- partial remission (number of patients) (patients with severe LN): 17 patients

Compound: CN(Cc1cnc2nc(N)nc(N)c2n1)c1ccc(C(=O)N[C@@H](CCC(=O)O)C(=O)O)cc1 [MTX, methotrexate]
- more likely than placebo to discontinue treatment due to adverse reactions [4]: three
- people who withdrew due to adverse effects ([4]; placebo group seven percent): twenty-two
- fraction of rheumatoid arthritis patients showing major improvement ([5]; human, in vivo): one-third
- patients with mild adverse effects ([5]; rheumatoid arthritis patients): up to 60%

Compound: O=c1[nH]cc(F)c(=O)[nH]1 [5-FU, 5-Fluorouracil]
- dose excreted unchanged in the urine ([6]; normal individuals): 10%
- dose excreted unchanged in the urine ([6]; people genetically deficient in DPD): 90%
- fraction of a dose transformed by DPD to the inactive dihydrofluorouracil form ([7]; in vivo): more than 80%
- fraction of an injected dose rapidly inactivated by DPD ([7]; injected dose): More than 85%
- partial remissions [8]: 10-30%

Compound: COc1c(C)c2c(c(O)c1C/C=C(\C)CCC(=O)OCCN1CCOCC1)C(=O)OC2 [MMF, Mycophenolate mofetil]
- patients who died during maintenance therapy [3]: one
- patients who developed chronic renal failure during maintenance therapy [3]: one
- combined end point, complete plus partial remission (number of patients) (patients with severe LN): 37 patients
- complete remission (number of patients) (patients with severe LN): 16 patients
- complete remission (percent of patients) (patients with severe LN): 23%
- partial remission (number of patients) (patients with severe LN): Twenty-one

Compound: Cn1cnc([N+](=O)[O-])c1Sc1ncnc2nc[nH]c12 [AZA, azathioprine]
- 6-TG level at maintained therapeutic response [9]: 187 pmol
- therapeutic range of 6-TG [9]: 140 to 249 pmol
- patients who developed chronic renal failure during maintenance therapy [3]: one

— US20060253263A1, “Method to optimize drug selection, dosing and evaluation and to help predict therapeutic response and toxicity from immunosuppressant therapy” (priority 2005, published 2006)
